From patent publication US20260034094A1, “COMPOSITIONS AND METHODS FOR INDUCING FERROPTOSIS” (Kojin Therapeutics, Inc., priority 2022, published 2026)
Values joined by “and” are separate entries in the source; they are usually repeats but may differ in a detail not shown here. Equal entries are not always repeated. Where two headings read alike, the source gives them in different places.

Key:
[1] = target: human recombinant GCL (Homo sapiens (Human), UniProt P48506); assay: GCL enzyme profiling assay (ADP-Glo luminescence); type: biochemical
Outline: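 ADP-Glo luminescence readout; 5 nM enzyme preincubated 1 h at 22 °C with 0.6 mM ATP, then started with 1 mM glutamate and 1.2 mM α-aminobutyrate, stopped after 2 h. Buffer: HEPES pH 7.5, MgCl2, DTT, BSA, 0.2% F-127, 1% DMSO. IC50 from four-parameter logistic fit.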

[2] = tested on: RKN cells; assay: RKN cell profiling assay (cell viability, CellTiter-Glo); type: cell-based; settings: read-out: Cell Killing EC50
Outline: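 Cells seeded at 1,000/well in F-12 with 10% FBS, left to adhere 24 h, then compound-treated for 96 h at 0.5% final DMSO. Viability by CellTiter-Glo luminescence; EC50 from four-parameter logistic fit. Ferroptosis rescue runs included 1.5 μM ferrostatin-1 added at seeding.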

[3] = human recombinant GCL, ADP-Glo, read-out: GCL IC50
[4] = human recombinant GCL 5 nM, 1 h preincubation with ATP, read-out: GCL IC50

Sequence of human recombinant GCL (P48506 whole entry): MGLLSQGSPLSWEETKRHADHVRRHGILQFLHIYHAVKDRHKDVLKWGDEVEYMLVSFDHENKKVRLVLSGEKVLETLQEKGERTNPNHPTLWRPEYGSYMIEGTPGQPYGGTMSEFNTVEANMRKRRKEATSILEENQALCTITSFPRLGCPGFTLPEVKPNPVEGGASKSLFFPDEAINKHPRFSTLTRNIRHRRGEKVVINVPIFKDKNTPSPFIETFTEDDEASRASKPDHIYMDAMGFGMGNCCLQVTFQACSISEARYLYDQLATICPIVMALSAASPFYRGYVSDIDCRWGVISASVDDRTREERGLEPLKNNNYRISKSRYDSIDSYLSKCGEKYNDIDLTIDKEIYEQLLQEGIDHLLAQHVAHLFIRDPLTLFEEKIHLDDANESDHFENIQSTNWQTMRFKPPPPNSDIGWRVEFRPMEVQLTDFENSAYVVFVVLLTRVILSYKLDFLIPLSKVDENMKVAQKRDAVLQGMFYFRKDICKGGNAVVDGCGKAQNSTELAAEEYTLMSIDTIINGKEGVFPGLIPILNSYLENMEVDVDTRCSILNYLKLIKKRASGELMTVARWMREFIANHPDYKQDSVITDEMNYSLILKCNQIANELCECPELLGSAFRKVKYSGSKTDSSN

Compound	IC50 [1, 3] [mM]	IC50 [1, 4]	IC50 ([1]; human recombinant GCL 5 nM, 1 h preincubation with ATP, read-out: GCL IC50 (mM), individual values in parentheses)	EC50 ([2]; cell viability) [µM]	EC50 ([2]; 96 h, 96 h exposure) [µM]
CC#CCS(=N)(=O)CC[C@H](N)C(=O)O (stereo partly shown) [Compound 144]	–	0.02 to 2 mM	–	–	≥ 1000
N=S(=O)(/C=C/c1ccccc1)CC[C@H](N)C(=O)O (stereo partly shown) [Compound 156]	–	0.02 to 2 mM	–	–	≥ 1000
N=S(=O)(CC[C@H](N)C(=O)O)CCC1(O)[C@H]2C[C@@H]3C[C@@H](C[C@H]1C3)C2 (stereo partly shown) [Compound 302]	0.02 to 2	–	–	≥ 1000	–
N=S(=O)(CCC1CCCC1(F)F)CC[C@H](N)C(=O)O (stereo partly shown) [Compound 180]	–	≤ 0.02 mM	–	–	≥ 1000
CC(C)(C)CCS(=N)(=O)CC[C@H](N)C(=O)NCC(F)(F)F (stereo partly shown) [Compound 114]	–	> 2 mM	–	–	< 1000
COCCOC(=O)[C@@H](N)CCS(=N)(=O)CCCC(F)(F)F (stereo partly shown) [Compound 83]	–	0.02 to 2 mM	–	–	< 1000
CCOC(=O)C1(CCS(=N)(=O)CC[C@H](N)C(=O)O)CCC1 (stereo partly shown) [Compound 189]	–	0.02 to 2 mM	–	–	< 1000
CCCCNC(=O)[C@@H](N)CCS(=N)(=O)CCC(C)(C)C (stereo partly drawn) [Compound 100, (2S)-2-amino-N-butyl-4-(3,3-dimethylbutylsulfonimidoyl)butanamide]	–	> 2 mM	–	–	< 1000
N=S(=O)(CCc1nc(-c2ccccc2)cs1)CC[C@H](N)C(=O)O (stereo partly shown) [Compound 17]	–	0.02 to 2 mM	–	–	≥ 1000
N=S(=O)(CC[C@H](N)C(=O)O)CCC(O)(C1CCC1)C(F)(F)F (stereo partly shown) [Compound 357]	≤ 0.02	–	–	≥ 1000	–
N=S(=O)(CCC(C1CCCCC1)C(F)(F)F)CC[C@H](N)C(=O)O (stereo partly drawn) [Compound 381, (2S)-2-amino-4-(3-cyclohexyl-4,4,4-trifluorobutylsulfonimidoyl)butanoic acid]	≤ 0.02	–	–	≥ 1000	–
CN(C)C(=O)C1(CCS(=N)(=O)CC[C@H](N)C(=O)O)CCC1 (stereo partly shown) [Compound 193]	–	0.02 to 2 mM	–	–	≥ 1000
N=S(=O)(CCC1COC1)CC[C@H](N)C(=O)O (stereo partly shown) [Compound 181]	–	0.02 to 2 mM	–	–	≥ 1000
CCCCOC(=O)[C@@H](N)CC[S@@](=N)(=O)CCCC(F)(F)F [Compound 90]	–	0.02 to 2 mM	–	–	< 1000
CC(C)(CCS(=N)(=O)CC[C@H](N)C(=O)O)c1ccccc1 (stereo partly drawn) [Compound 49, (2S)-2-amino-4-(3-methyl-3-phenylbutylsulfonimidoyl)butanoic acid]	–	0.02 to 2 mM	–	–	≥ 1000
N=S(=O)(CCC1CCCCC1)CC[C@H](N)C(=O)O (stereo partly shown) [Compound 142]	–	≤ 0.02 mM	–	–	≥ 1000
CC(C)(N)CCS(=N)(=O)CC[C@H](N)C(=O)O (stereo partly shown) [Compound 183]	–	> 2 mM	–	–	≥ 1000

Compound	IC50 [1, 3] [mM]	IC50 [1, 4]	IC50 ([1]; human recombinant GCL 5 nM, 1 h preincubation with ATP, read-out: GCL IC50 (mM), individual values in parentheses)	EC50 ([2]; cell viability) [µM]	EC50 ([2]; 96 h, 96 h exposure) [µM]
N=S(=O)(CC[C@H](N)C(=O)O)CCC(O)(C(F)(F)F)C(F)(F)F (stereo partly shown) [Compound 301]	≤ 0.02	–	–	< 1000	–
CCCCS(=N)(=O)CC[C@H](N)C(=O)OCc1oc(=O)oc1C (stereo partly drawn) [Compound 73, (2S)-(5-methyl-2-oxo-1,3-dioxol-4-yl)methyl 2-amino-4-(butylsulfonimidoyl) butanoate]	–	> 2 mM and 0.02 to 2 mM	–	–	≥ 1000
CC(C)(C)CCS(=N)(=O)CC[C@H](N)C(=O)NC(C)(C)C (stereo partly shown) [Compound 117]	–	> 2 mM	–	–	≥ 1000
CCCCS(=N)(=O)CC[C@H](N)C(=O)NCC#N (stereo partly shown) [Compound 106]	–	> 2 mM	–	–	≥ 1000
N=S(=O)(CC[C@H](N)C(=O)O)CCC1(CO)CCC1 (stereo partly shown) [Compound 182]	–	0.02 to 2 mM	–	–	< 1000
N=S(=O)(CC[C@H](N)C(=O)O)CCC1(c2cccc(F)c2)CCC1 (stereo partly drawn) [Compound 385, (2S)-2-amino-4-[2-[1-(3-fluorophenyl)cyclobutyl]ethylsulfonimidoyl]butanoic acid]	0.02 to 2	–	–	< 1000	–
CC(C)(C)[C@H](N)CS(=N)(=O)CC[C@H](N)C(=O)O (stereo partly shown) [Compound 148]	–	0.02 to 2 mM	–	–	≥ 1000
CCC(O)(CCS(=N)(=O)CC[C@H](N)C(=O)O)C(F)(F)F (stereo partly shown) [Compound 352]	0.02 to 2	–	–	< 1000	–
N=S(=O)(CCc1cn[nH]c1)CC[C@H](N)C(=O)O (stereo partly shown) [Compound 8]	–	0.02 to 2 mM	–	–	≥ 1000
N=S(=O)(CCC1CC(F)(F)C1)CC[C@H](N)C(=O)O (stereo partly shown) [Compound 161]	–	0.02 to 2 mM	–	–	< 1000
N[C@@H](CCS(=O)(=O)CCC(O)(c1ccsn1)C(F)(F)F)C(=O)O (stereo partly shown) [Compound 371]	≤ 0.02	–	–	< 1000	–
CC(C)(C)[C@@H](N)CS(=N)(=O)CC[C@H](N)C(=O)O (stereo partly shown) [Compound 147]	–	> 2 mM	–	–	≥ 1000
N=S(=O)(CCc1ccccc1O)CC[C@H](N)C(=O)O (stereo partly shown) [Compound 21]	–	≤ 0.02 mM	–	–	< 1000
N[C@@H](CCS(=O)(=O)CCC(O)(c1cc2ccccc2cn1)C(F)(F)F)C(=O)O (stereo partly drawn) [Compound 332, (2S)-2-amino-4-((4,4,4-trifluoro-3-hydroxy-3-(isoquinolin-3-yl)butyl)sulfonyl)butanoic acid]	0.02 to 2	–	–	≥ 1000	–
N=S(=O)(CCCC(F)(F)F)CC[C@H](N)C(=O)OCC1CCCCC1 (stereo partly shown) [Compound 81]	–	0.02 to 2 mM	–	–	< 1000
N=S(=O)(CC[C@H](N)C(=O)O)Cc1ccccc1C(=O)O (stereo partly shown) [Compound 168]	–	0.02 to 2 mM	–	–	≥ 1000
N=S(=O)(CC[C@H](N)C(=O)O)Cc1ccccc1 (stereo partly shown) [Compound 140]	–	> 2 mM	–	–	≥ 1000

Continued, in another order:

IC50 [1, 3] [mM]	IC50 [1, 4]	IC50 ([1]; human recombinant GCL 5 nM, 1 h preincubation with ATP, read-out: GCL IC50 (mM), individual values in parentheses)	Compound	EC50 ([2]; cell viability) [µM]	EC50 ([2]; 96 h, 96 h exposure) [µM]
> 2	–	–	N=S(=O)(CC[C@@H](O)C(F)(F)F)CC[C@H](N)C(=O)O (single isomer, unassigned) [Compound 329]	≥ 1000	–
≤ 0.02	–	–	N=S(=O)(CC[C@H](N)C(=O)O)CCC(O)(c1ccc(-c2ccccc2O)cc1)C(F)(F)F (stereo partly shown) [Compound 434]	< 1000	–
> 2	–	–	C[C@](O)(CCS(=N)(=O)CC[C@H](N)C(=O)O)C(F)(F)F (single isomer, unassigned) [Compound 325]	≥ 1000	–
≤ 0.02	–	–	COc1ccc(Cl)cc1-c1ccc(C(CCS(=N)(=O)CC[C@H](N)C(=O)O)C(F)(F)F)cc1 (stereo partly shown) [Compound 236]	< 1000	–
≤ 0.02	–	–	N=S(=O)(CC[C@H](N)C(=O)O)CCC(O)(c1ccc(Oc2ccccc2)cc1)C(F)(F)F (stereo partly shown) [Compound 334]	< 1000	–
–	0.02 to 2 mM	–	N=S(=O)(CCc1cccc(C(F)(F)F)c1)CC[C@H](N)C(=O)O (stereo partly shown) [Compound 3]	–	≥ 1000
–	≤ 0.02 mM	–	N=S(=O)(CCC(c1ccc(-c2ccccc2)cc1)C(F)(F)F)CC[C@H](N)C(=O)O (stereo partly drawn) [Compound 211, (2S)-4-(3-([1,1′-biphenyl]-4-yl)-4,4,4-trifluorobutylsulfonimidoyl)-2-aminobutanoic acid]	–	< 1000
> 2	–	–	CC(C)(C)OC(=O)[C@@H](N)CC[S@](=N)(=O)CC[C@H](O)C(F)(F)F [Compound 490]	≥ 1000	–
≤ 0.02	–	–	N=S(=O)(CC[C@H](N)C(=O)O)CCC(O)(c1ccc(-c2ccccc2)cc1)C(F)(F)F (stereo partly drawn) [Compound 424, (2S)-4-(3-([1,1′-biphenyl]-4-yl)-4,4,4-trifluoro-3-hydroxybutylsulfonimidoyl)-2-aminobutanoic acid]	< 1000	–
–	0.02 to 2 mM	–	CC(C)(CCS(=N)(=O)CC[C@H](N)C(=O)O)c1ccc(F)cc1 (stereo partly shown) [Compound 58]	–	≥ 1000
0.02 to 2	–	–	N=S(=O)(CCC(n1cccn1)C(F)(F)F)CC[C@H](N)C(=O)O (stereo partly shown) [Compound 411]	< 1000	–
0.02 to 2	–	–	N=S(=O)(CC[C@H](N)C(=O)O)CCC(O)(c1ccncc1)C(F)(F)F (stereo partly shown) [Compound 362]	≥ 1000	–
≤ 0.02	–	–	N=S(=O)(CC[C@H](N)C(=O)O)CCC1(c2ncc(-c3ccc(Cl)cc3Cl)cn2)CCC1 (stereo partly drawn) [Compound 498, (2S)-2-amino-4-(2-(1-(5-(2,4-dichlorophenyl)pyrimidin-2-yl)cyclobutyl)ethylsulfonimidoyl) butanoic acid]	< 1000	–
≤ 0.02	–	–	N=S(=O)(CCC(n1nc2ccccc2n1)C(F)(F)F)CC[C@H](N)C(=O)O (stereo partly shown) [Compound 410]	≥ 1000	–
> 2	–	–	N=S(=O)(CC[C@H](N)C(=O)O)CC[C@H](O)C(F)(F)F (single isomer, unassigned) [Compound 327]	≥ 1000	–
–	≤ 0.02 mM and 0.02 to 2 mM	0.022 mM and 0.0183 mM	N=S(=O)(CCC(C(F)(F)F)C(F)(F)F)CC[C@H](N)C(=O)O (stereo partly shown) [Compound 186]	–	< 1000
–	0.02 to 2 mM	–	N=S(=O)(CCC(N)C(F)(F)F)CC[C@H](N)C(=O)O (stereo partly drawn) [Compound 210, (2S)-2-amino-4-(3-amino-4,4,4-trifluorobutylsulfonimidoyl)butanoic acid]	–	< 1000
–	≤ 0.02 mM	–	N=S(=O)(CCc1cccc(F)c1)CC[C@H](N)C(=O)O (stereo partly shown) [Compound 24]	–	≥ 1000
≤ 0.02	–	–	N=S(=O)(CC[C@H](N)C(=O)O)CC[C@H](O)C(F)(F)F (single isomer, unassigned) [Compound 326]	< 1000	–
0.02 to 2	–	–	N=S(=O)(CC[C@H](N)C(=O)O)CCC(O)(c1ncc2ccccc2n1)C(F)(F)F (stereo partly shown) [Compound 374]	< 1000	–
–	≤ 0.02 mM	–	COC(CCS(=N)(=O)CC[C@H](N)C(=O)O)C(F)(F)F (stereo partly shown) [Compound 155]	–	< 1000
≤ 0.02	–	–	N=S(=O)(CCC(n1ncc(-c2cccnc2)n1)C(F)(F)F)CC[C@H](N)C(=O)O (stereo partly shown) [Compound 408]	≥ 1000	–
–	0.02 to 2 mM	–	N=S(=O)(CC[C@H](N)C(=O)O)CC[C@H](O)c1ccccc1 (stereo partly shown) [Compound 54]	–	≥ 1000
